Results on 22 molecules are retold here after US8686177B2, “LPA receptor agonists and antagonists” (RxBio, Inc., priority 2008, dated 2014).

One assay has as its system LPA receptors (LPA1/2/3). Description: LPA receptor agonist/antagonist activity (Table 4). It counts as cell-based. How it is done: Compounds were tested for their ability to induce or inhibit LPA-induced calcium transients in RH7777 rat hepatoma cells stably expressing LPA1, LPA2, and LPA3 receptors and in PC-3 that express LPA1-3 endogenously, using a FlexStation II automated fluorometer (Molecular Devices, Sunnyvale, Calif.).
RH7777 cells stably expressing either LPA1, LPA2 or LPA3 or PC-3 cells were plated on poly-D lysine-coated black wall clear bottom 96-well plates (Becton Dickinson, San Jose, Calif.) with a density of 50000 cells/well, and cultured overnight. The culture medium (DMEM containing 10% FBS) was then replaced with modified Krebs solution (120 mM NaCl, 5 mM KCl, 0.62 mM MgSO4, 1.8 mM CaCl2, 10 mM HEPES, 6 mM glucose, pH 7.4) and the cells were serum starved for 6-8 hours (12 h for PC-3 cells). Cells were loaded with Fura-2 AM for 35 minutes in modified Krebs medium. The Fura-2 was removed before loading the plate in the FlexStation instrument by replacing the medium once again with 100 μl modified Krebs medium/well. Plates were incubated for 4 minutes in the instrument to allow for warming to 37° C. Changes in intracellular Ca^2+ concentration were monitored by measuring the ratio of emitted light intensity at 520 nm in response to excitation by 340 nm and 380 nm wavelength lights, respectively. Each well was monitored for 80-120 seconds. […] Time courses were recorded using the SoftMax Pro software (Molecular Devices, Sunnyvale, Calif.). Ca^+ transients were quantified automatically by calculating the difference between maximum and baseline ratio values for each well.

Assay [1] relates to IEC-6 cells. The assay can be described thus: Camptothecin-induced DNA fragmentation in IEC-6 cells (Example 8, Cell Death Detection ELISA). It is filed as cell-based. To be noted: 20 μM camptothecin; LPA and FAP 12 at 10 μM. How it is done:
IEC-6 cells were grown in DMEM medium supplemented with 5% fetal bovine serum, insulin (10 μg/ml), gentamycin sulfate (50 μg/ml), and incubated at 37° C. in a humidified 90% air-10% CO2 atmosphere. Medium was changed every other day. Sub-confluent cells were washed twice and replaced by DMEM without serum the night before experiments.
Damage and IEC-6 cell apoptosis was induced via either γ-irradiation or chemotherapy. 20 Gy single dose of [^137Cs] source γ-irradiation was used in all experiments. […] In some experiments, LPA was added at different times before or after irradiation. Treatment with 20 μM camptothecin of IEC-6 cells induces DNA fragmentation as measured by the ELISA assay at 16 h after treatment. DNA fragmentation was quantified using the Cell Death Detection ELISA kit from Boehringer (Indianapolis, Ind.) according to the instructions of the manufacturer. Samples were run in triplicate. A duplicate of the sample was used to quantify protein concentration using the BCA kit from Pierce (Rockford, Ill.). DNA fragmentation was expressed as absorbance units per μg protein per minute.
Background: An ELISA detects its analyte on a solid surface through an enzyme-linked reagent.

In assay [2] the test system is IEC-6 cells. The assay can be described thus: DNA fragmentation assay in camptothecin-induced IEC-6 cells (Example 11, FIG. 7). It counts as cell-based. To be noted: 20 μM camptothecin, 15 min pre-treatment, 6 hours. The method, then:
IEC-6 cells were obtained from the American Type Culture Collection (Manassas, Va.) and were grown in Dulbecco's modified Eagle medium (DMEM) supplemented with 10% fetal bovine serum, 10 μg/ml insulin, and 50 μg/ml gentamicin sulfate at 37° C. in a humidified 90% air/10% CO2 atmosphere. The medium was changed every other day. Cells between passage 15 and 21 were used for the experiments. Newly synthesized RxBio analogs at doses ranging from […] were used to pre-treat IEC-6 cells for 15 min. Apoptosis was induced by 20 μM camptothecin following the pre-treatment. DNA fragmentation was measured 6 hours after camptothecin treatment by enzyme-linked immunosorbent assay using the cell death detection ELISA^PLUS kit from Roche (Indianapolis, Ind.) following the instruction of the manufacturer. Briefly, cells were harvested and lysed in DNA lysis buffer for 30 min. Sample lysates were collected after centrifugation at 200 rpm for 10 min. 10 μl of supernatant was loaded individually in a 96-well streptavidin-coated plate and incubated with immunoreagents (anti-histone-biotin plus anti-DNA peroxidase conjugated antibody) on a shaker for 2 h. […] DNA absorbance was read at 405 nm in a microplate reader (PerkinElmer, Shelton, Conn.). Aliquots of samples were used to quantify protein concentration using the bicinchoninic acid kit (Pierce, Rockford, Ill.).

A further assay has as its target T1, LPA1 receptor (Homo sapiens, UniProt Q92633).
T1 construct: expressed in transfected cells
Description: LPA-induced Ca2+ transients in RH7777 cells stably expressing LPA1 (agonism/antagonism). It counts as cell-based. The following applies: RH7777 cells expressing LPA1, compared to LPA 18:1.

A further assay has as its target T2, LPA2 receptor (Homo sapiens, UniProt Q9HBW0).
T2 construct: expressed in transfected cells
The assay can be described thus: LPA-induced Ca2+ transients in RH7777 cells stably expressing LPA2 (agonism/antagonism). It is filed as cell-based. To be noted: RH7777 cells expressing LPA2, compared to LPA 18:1.

In a further assay the target is T3, LPA3 receptor (Homo sapiens, UniProt Q9UBY5).
T3 construct: expressed in transfected cells
T3 sequence (Q9UBY5 1-353): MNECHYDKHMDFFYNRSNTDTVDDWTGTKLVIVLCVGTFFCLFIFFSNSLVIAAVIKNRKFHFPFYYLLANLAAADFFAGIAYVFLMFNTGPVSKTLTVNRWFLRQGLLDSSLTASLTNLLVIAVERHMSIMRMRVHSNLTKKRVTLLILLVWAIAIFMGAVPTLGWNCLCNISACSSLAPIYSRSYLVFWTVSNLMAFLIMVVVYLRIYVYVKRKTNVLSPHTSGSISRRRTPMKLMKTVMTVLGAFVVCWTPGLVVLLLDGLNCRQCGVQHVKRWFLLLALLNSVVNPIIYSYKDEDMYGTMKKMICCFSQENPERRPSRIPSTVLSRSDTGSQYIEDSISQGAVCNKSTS
The assay can be described thus: LPA-induced Ca2+ transients in RH7777 cells stably expressing LPA3 (agonism/antagonism). It is filed as cell-based. To be noted: RH7777 cells expressing LPA3, compared to LPA 18:1.

Assay [3] has as its system small intestine crypts of irradiated mice. The assay can be described thus: Crypt survival in whole-body gamma-irradiated mice (Example 9). It counts as in vivo. How it is done:
ICR strain male mice (Harlan Laboratories, body weight 30-33 g) on a 12 h light/dark cycle and otherwise maintained on a standard laboratory chow ad libitum were starved for 16 h prior to treatment. WBI was done with a 12 Gy or 15 Gy dose using Cs^137 source at a dose rate of 1.9 Gy per minute. Groups of four mice received either 250 μl of 1 mM LPA complexed with 100 μM BSA dissolved in Hanks basal salt solution or the BSA vehicle alone 2 h prior to irradiation.
For detection of the apoptotic bodies, mice were euthanized with carbon dioxide inhalation 4 h after irradiation and the small intestine was dissected and fixed in neutral phosphate buffered isotonic 10% formalin. Four ˜3- to 4-mm long segments from the small intestine were embedded in paraffin, 5 μM thick sections were cut and stained with hematoxilin and eosin. The number of surviving crypts was counted 3.5 days after irradiation.

T1 sequence (Q92633 whole entry): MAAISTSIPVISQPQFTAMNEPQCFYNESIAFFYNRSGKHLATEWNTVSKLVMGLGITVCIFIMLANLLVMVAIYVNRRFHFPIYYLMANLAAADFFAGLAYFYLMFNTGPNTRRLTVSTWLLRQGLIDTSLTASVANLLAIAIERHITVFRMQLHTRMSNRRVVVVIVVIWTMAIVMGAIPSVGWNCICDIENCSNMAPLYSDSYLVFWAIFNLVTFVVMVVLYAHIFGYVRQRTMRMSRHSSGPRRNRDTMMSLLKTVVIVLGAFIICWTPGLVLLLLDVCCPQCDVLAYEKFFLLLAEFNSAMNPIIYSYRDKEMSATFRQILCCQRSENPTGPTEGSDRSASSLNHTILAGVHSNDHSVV
T2 sequence (Q9HBW0 whole entry): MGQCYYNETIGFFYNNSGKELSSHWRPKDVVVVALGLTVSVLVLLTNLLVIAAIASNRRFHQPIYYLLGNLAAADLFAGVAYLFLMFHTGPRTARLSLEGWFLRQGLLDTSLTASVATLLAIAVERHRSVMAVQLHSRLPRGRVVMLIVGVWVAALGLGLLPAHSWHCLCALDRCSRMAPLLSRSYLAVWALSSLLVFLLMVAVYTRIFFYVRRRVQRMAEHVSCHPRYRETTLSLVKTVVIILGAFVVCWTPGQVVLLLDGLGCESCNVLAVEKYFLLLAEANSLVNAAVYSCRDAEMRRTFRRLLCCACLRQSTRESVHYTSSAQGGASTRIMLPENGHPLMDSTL
Description for LPA1 receptor: (§1) RH7777 cells stably expressing either LPA1, LPA2 or LPA3 or PC-3 cells were plated on poly-D lysine-coated black wall clear bottom 96-well plates (Becton Dickinson, San Jose, Calif.) with a density of 50000 cells/well, and cultured overnight. The culture medium (DMEM containing 10% FBS) was then replaced with modified Krebs solution (120 mM NaCl, 5 mM KCl, 0.62 mM MgSO4, 1.8 mM CaCl2, 10 mM HEPES, 6 mM glucose, pH 7.4) and the cells were serum starved for 6-8 hours (12 h for PC-3 cells). […] Changes in intracellular Ca^2+ concentration were monitored by measuring the ratio of emitted light intensity at 520 nm in response to excitation by 340 nm and 380 nm wavelength lights, respectively. Each well was monitored for 80-120 seconds. […] Time courses were recorded using the SoftMax Pro software (Molecular Devices, Sunnyvale, Calif.). Ca^+ transients were quantified automatically by calculating the difference between maximum and baseline ratio values for each well.
(§2) These new analogs were evaluated as agonists and antagonists with respect to LPA1-3. […]
Description for LPA2 receptor: as §1, §2
Description for LPA3 receptor: as §1, §2

As to “Potassium boranophosphoryl monododecyl ester [RxBVG-II-11]”, the Activity result in the assay with LPA receptors (LPA1/2/3) was “LPA2 agonist”.

As for `CCCCCCC1CC1CCCCCCCCOP(O)(O)=S.N` (centres unmarked) [RxBVG-II-22, Ammonium thiophosphoryl-O-[8-(2-hexyl-cyclopropyl)-octyl]ester], the Activity result in the assay on LPA receptors (LPA1/2/3) is “LPA2 agonist”.

For the molecule “Ammonium thiophosphoryl-O-eicos-11Z-enyl ester [RxBVG-I-77]”, the Activity result in the assay with LPA receptors (LPA1/2/3) is given as “LPA2 agonist”.

`CCCCCCCC/C=C\CCCCCCCC(=O)OC[C@@H](O)COP(=O)(O)O` [oleoyl-LPA]: in the assay on IEC-6 cells [1], the “inhibition of camptothecin-induced DNA fragmentation” value (“inhibition” below) is given as “inhibited”.

As to `CCCCCCC1CC1CCCCCCCCCCOP([O-])(O)=S.[K+]` (centres unmarked) [RxBVG-II-34, Potassium thiophosphoryl-O-[10-(2-hexyl-cyclopropyl)-decyl]ester], the Activity entry in the assay on LPA receptors (LPA1/2/3) is listed as “LPA2 agonist”.

In the case of `BP(=O)(O)OCCCCCCCCCCCCCC` [RxBVG-II-9, Potassium boranophosphoryl monotetradecyl ester], the Activity entry in the assay on LPA receptors (LPA1/2/3) is given as “LPA2 agonist”.

`CCCCCCCC(CCCCCCC)OP(=O)(O)O.N.N` [RxBVG-I-27, Ammonium phosphoryl-mono-(1-heptyl-octyl) ester]: the Activity result with LPA receptors (LPA1/2/3) was “Pan antago- nist (LPA1/2/3)”.

As to `CCCCC/C=C\C/C=C\CCCCCCCCOP(O)(O)=S` [RxBVG-I-83, Ammonium thiophosphoryl-O-octadeca-9Z,12Z-dienyl ester], in the assay on LPA receptors (LPA1/2/3), the Activity entry was “LPA2 agonist”.

With `CCCCCC/C=C\CCCCCCCCOP(O)(O)=S.N` [RxBVG-I-81, Ammonium thiophosphoryl-O-hexadec-9Z-enyl ester], the Activity result in the assay with LPA receptors (LPA1/2/3) is “Pan antago- nist (LPA1/2/3)”.

Turning to `CCCCCCCCCCCCCCCCCCC(COP(O)(O)=S)COP(O)(O)=S.N` [RxBVG-I-64, Ammonium thiophosphoryl-O-(2-thiophosphonooxymethyl-eicosyl) ester], the Activity entry in the assay with LPA receptors (LPA1/2/3) is listed as “LPA3 agonist”.

Take `CCCCCCCC(CCCCCCC)OP(O)(O)=S` [RxBVG-I-28, Thiophosphoric acid O-(1-heptyl-octyl) ester]: the Activity entry in the assay on LPA receptors (LPA1/2/3) was “Pan antago- nist (LPA1/2/3)”.

Regarding `CCCCCCCC/C=C/CCCCCCCCOP(O)(O)=S.N` [RxBVG-I-67, Ammonium thiophosphoryl-O-octadec-9E-enyl ester], the Activity entry with LPA receptors (LPA1/2/3) is “LPA3 agonist”.

For the molecule `CCCCCCCCCCCCOP(=O)(O)O` [FAP 12], in the assay with IEC-6 cells [1], the “inhibition” value is recorded as “inhibited”.

For the molecule `CCCCCCCCC1CC1CCCCCCCCOP(O)(O)=S.N` (stereo not drawn) [RxBVG-I-93, Ammonium thiophosphoryl-O-[8-(2-octyl-cis-cyclopropyl)-octyl]ester], in the assay on IEC-6 cells [2], the “efficacy in DNA fragmentation assay” value is “even more efficacy than did oleoyl thiophosphate”. For the same molecule, in the assay on LPA receptors (LPA1/2/3), the Activity entry is “LPA2 agonist”.

For `CCCCCCCCC1CC1CCCCCCCCCCOP([O-])(O)=S.[K+]` (centres unmarked) [RxBVG-II-36, Potassium thiophosphoryl-O-[10-(2-octyl-cyclopropyl)-decyl]ester], the Activity entry with LPA receptors (LPA1/2/3) is “LPA2 agonist”.

Consider `BP(=O)(O)OCCCCCCCC` [RxBVG-II-13, Potassium boranophosphoryl monooctyl ester], for which the Activity result in the assay on LPA receptors (LPA1/2/3) is recorded as “LPA2 agonist”.

As to `[K+].[O-]P(O)(=S)OCCCCCCCCC1CC1` [RxBVG-II-23, Potassium thiophosphoryl-O-(8-cyclopropyl-octyl) ester], the Activity entry with LPA receptors (LPA1/2/3) is “LPA2 agonist”.

For `CCCC/C=C\CCCCCCCCCOP(O)(O)=S.N` [RxBVG-I-82, Ammonium thiophosphoryl-O-pentadec-10Z-enyl ester], the Activity entry with LPA receptors (LPA1/2/3) is given as “Pan antago- nist (LPA1/2/3)”.

Turning to `CCCCCCCCC=CCCCCCCCCOP(O)(O)=S` [8g, Thiophosphoric acid O-octadec-9-enyl ester], the “ligand property at LPA1 (FIG. 2A)” value on LPA1 receptor is recorded as “agonist”. For the same molecule, on LPA2 receptor, the “ligand property at LPA2 (FIG. 2B)” value was “agonist”. For the same molecule, on LPA3 receptor, the “ligand property at LPA3 (FIG. 2C)” value is reported as “agonist”. Besides, the “inhibition” value with IEC-6 cells [1] was “comparable to that of LPA but supersedes it at concentrations above 3 μM”. Moreover, the crypt survival result in assay [3] (200 μM into the stomach 2 h prior irradiation, FIG. 3) is given as “significantly (P>0.01) enhanced crypt survival”. In assay [3] (FIG. 4), the “crypt survival, dose dependence” value is given as “dose-dependent enhancement of crypt survival”. Moreover, the “crypt survival in jejunum and ileum compared with LPA” value in assay [3] (γ-irradiated mice, FIG. 5) is “present in the jejunum and ileum and exceeded that of LPA”.

On to `CCCCCC1CC1CC1CC1CCCCCCCCOP([O-])(O)=S.[K+]` (centres unmarked) [RxBVG-II-35, Potassium thiophosphoryl-O-{8-[2-(2-pentyl-cyclopropylmethyl)-cyclopropyl]octyl}ester], for which the Activity entry with LPA receptors (LPA1/2/3) is reported as “LPA2 agonist”.

For `CCCCCCCCCCCCCCC(C(=O)O)C(=O)O` [RxBVG-I-8, 2-Tetradecyl-malonic acid], the Activity result with LPA receptors (LPA1/2/3) is listed as “LPA2 agonist”.

`BP(=O)(O)OCCCCCCCCCCCCCCCCCC` [RxBVG-II-7, Potassium boranophosphoryl monooctadecyl ester]: the Activity result in the assay on LPA receptors (LPA1/2/3) is reported as “LPA2 agonist”.
